Measured values reported in PMC9609767, “Radiosynthesis and Preclinical Evaluation of an ^18F-Labeled Triazolopyridopyrazine-Based Inhibitor for Neuroimaging of the Phosphodiesterase 2A (PDE2A)” (Pharmaceuticals, 2022).
“And” between values parts separate entries of the source, which are not always exact repeats. Identical values can stand only once. Like-named read-outs stand apart in the source and are kept apart here.

Tests used:
rat PDE2A = target: T1, rat PDE2A (Rattus norvegicus, UniProt Q01062); experiment: In vitro autoradiography with rat brain cryosections; type: binding; details: co-incubation with 1 µM inhibitor
T1 construct: Frozen sagittal 12 µm brain sections obtained from female SPRD and male Wistar-Han rats; from tissue; host or cells: rat brain cryosections (female SPRD and male Wistar-Han rats)
T1 sequence (Q01062 1-928): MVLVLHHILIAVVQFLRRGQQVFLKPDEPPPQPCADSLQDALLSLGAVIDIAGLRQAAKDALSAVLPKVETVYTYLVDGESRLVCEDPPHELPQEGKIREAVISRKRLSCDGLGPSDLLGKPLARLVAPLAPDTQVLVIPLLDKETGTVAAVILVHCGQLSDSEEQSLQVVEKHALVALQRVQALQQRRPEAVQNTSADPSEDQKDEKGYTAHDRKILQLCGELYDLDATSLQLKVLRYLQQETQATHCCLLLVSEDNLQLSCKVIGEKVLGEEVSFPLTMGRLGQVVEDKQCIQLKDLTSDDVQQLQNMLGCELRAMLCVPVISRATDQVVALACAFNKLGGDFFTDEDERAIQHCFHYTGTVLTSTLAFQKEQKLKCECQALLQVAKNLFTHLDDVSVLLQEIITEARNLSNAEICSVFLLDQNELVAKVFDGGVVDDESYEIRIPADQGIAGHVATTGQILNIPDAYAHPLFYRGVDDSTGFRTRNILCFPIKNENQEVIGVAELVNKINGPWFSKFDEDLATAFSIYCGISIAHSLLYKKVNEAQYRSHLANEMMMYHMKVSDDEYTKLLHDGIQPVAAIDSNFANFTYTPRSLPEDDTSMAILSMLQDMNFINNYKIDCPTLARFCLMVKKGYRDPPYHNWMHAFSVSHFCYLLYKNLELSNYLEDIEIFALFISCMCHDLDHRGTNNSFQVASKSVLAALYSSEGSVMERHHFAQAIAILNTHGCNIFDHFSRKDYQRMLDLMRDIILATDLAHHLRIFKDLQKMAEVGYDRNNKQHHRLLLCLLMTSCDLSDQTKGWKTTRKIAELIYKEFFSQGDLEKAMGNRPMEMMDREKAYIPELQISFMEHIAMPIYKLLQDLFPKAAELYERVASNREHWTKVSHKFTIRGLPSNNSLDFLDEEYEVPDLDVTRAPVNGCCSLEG
Description: Frozen sagittal 12 µm brain sections obtained from female SPRD and male Wistar-Han rats (10–12 weeks old) were thawed, dried in a stream of cold air, and pre-incubated for 15 min with incubation buffer (50 mM TRIS-HCl, pH 7.4; supplemented with 1 mM MgCl2, 1 mM CaCl2, 2 mM KCl, and 2 U/mL Adenosine deaminase) at ambient temperature. Afterwards, the buffer was decanted and the cryosections dried again in a stream of cold air before covering with the radioligand in incubation buffer (~0.1 MBq [^18F]11/mL; Am at the time of the incubation ~10 GBq/µmol) for incubation at ambient temperature for 90 min.
The incubation was terminated by pouring off the incubation solution and washing the slides twice with ice-cold buffer (50 mM TRIS-HCl, pH 7.4/4 °C) for 2 min and rinsing by dipping in ice-cold demineralised water. Immediately afterwards, the sections were dried in a stream of cold air and exposed along with appropriate radioactive standards (1 µL of serial dilutions of the radioligand in incubation buffer, pipetted on a microscopic glass slide and air dried) to an ^18F-sensitive image plate for 120 min. Finally, the imaging plate was scanned at the highest possible resolution (pixel size 12.6 µm × 12.6 µm) in a phosphor imager (HD-CR 35; Duerr NDT GmbH, Bietigheim Bissingen, Germany) and the digital image analysed with an image analysis program (Aida Image Analyzer v. 4.26; Elysia-raytest GmbH, Straubenhardt, Germany).
For the determination of the protein concentration, four dried 12 µm cryosections were scraped from the microscopic glass slides, transferred in an Eppendorf tube and solubilised with 200 µL of demineralised water. The protein concentration of this solution was determined by a commercial assay (Pierce™ BCA Protein Assay Kit, Thermo Fisher Scientific, Schwerte, Germany). The area of the cryosections was determined during the analysis of the digitized autoradiographic images, and the volume was calculated by multiplying the area with the thickness of the slices. Finally, the protein concentration of the tissue was calculated (37 mg protein/g wet weight).

PDE2A [1] = details: cited from earlier work
human PDE2A = test system: human PDE2A; design: method as in PMID 15555642; details: cited from earlier work
bovine PDE2A = test system: bovine PDE2A; design: method as in PMID 15555642; details: cited from earlier work
PDE2A [2] = test system: PDE2A; design: method as in earlier work; details: cited from earlier work
PDE10A [3] = experiment: Inhibitory potency against PDE10A; type: biochemical; details: PDE2A vs. PDE10A
PDE10A [4] = test system: PDE10A; design: method as in earlier work; details: read-out: IC50, PDE10A (PDE10A1); cited from earlier work

## Cc1nc(-c2cnn(C)c2-c2ccc(C(F)(F)F)cn2)c2c(N3CCC3)ncnn12 [PF-05180999, reference compound]
Rat PDE2A
  blocking of [18F]11 binding in rat brain sections: completely blocked
PDE2A [1]
  IC50: 1.6 nM

## COc1ccc(Cc2nn3c([C@@H](CCCc4ccccc4)[C@@H](C)O)nc(C)c3c(=O)[nH]2)cc1OC [BAY60-7550]
Human PDE2A
  IC50: 4.7 nM
Bovine PDE2A
  IC50: 2 nM
Rat PDE2A
  blocking of [18F]11 binding in rat brain sections: completely blocked

## CCCC(O)c1ccc(F)c(-c2nnc3c(C)nc4ccc(C5CC5)nc4n23)c1 (centres unmarked) [Compound 11, 1-[3-(2-Cyclopropyl-6-methylpyrido[3,2-e][1,2,4]triazolo[4,3-a]pyrazin-9-yl)-4-fluorophenyl]butan-1-ol]
PDE2A [2]
  IC50: 1.99 nM
PDE10A [3]
  selectivity vs. PDE10A: ~1000 fold
PDE10A [4]
  IC50: ~2000 nM and 1910 nM
